# Patent US20110152166A1, “METHOD OF MODULATION OF PROTEIN PHOSPHORYLATION-DEPENDENT CONFORMATIONAL TRANSITIONS WITH LOW MOLECULAR WEIGHT COMPOUNDS” (priority 2006, published 2011)
# Where two headings read alike, the source gives them in different places. Square brackets hold non-standard residues; d marks the D form. Ends that are not written are not given here. pS = N[C@@H](COP(=O)(O)O)C(=O)O
# Legend:
# Format in all cases: biochemical
# [1] = target: T1, ΔN-SGK[Ser422Asp] (Homo sapiens, UniProt O00141, S422D); experiment: AGC kinase panel activity assay (Crosstide); settings: for SGK1 (%) activity: 1% DMSO = 100%
# T1 construct: made in house; host or cells: HEK293
# T1 sequence (O00141 61-431 S422D limits assumed): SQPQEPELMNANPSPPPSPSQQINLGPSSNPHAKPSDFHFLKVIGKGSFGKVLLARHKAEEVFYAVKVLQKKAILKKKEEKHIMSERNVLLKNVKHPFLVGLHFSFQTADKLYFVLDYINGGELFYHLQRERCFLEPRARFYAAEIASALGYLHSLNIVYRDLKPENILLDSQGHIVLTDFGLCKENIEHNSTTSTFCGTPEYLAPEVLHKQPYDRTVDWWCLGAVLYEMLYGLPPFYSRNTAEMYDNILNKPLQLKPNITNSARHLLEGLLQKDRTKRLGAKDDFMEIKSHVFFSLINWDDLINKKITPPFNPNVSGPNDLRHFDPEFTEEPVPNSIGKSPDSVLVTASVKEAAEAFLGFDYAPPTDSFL
# Experimental: (§1) Protein kinase activity tests were performed essentially as previously described (Balendran et al., 2000; Biondi et al., 2000; Biondi et al., 2001). Substrates used were either MBP (for PKCζ or polypeptides (Crosstide for PKB, S6K, SGK and PRK2; T308tide for PDK1, and Kemptide for PKA). PKA (Sigma) was measured in the presence of 100 μM cAMP. Alternatively, assays were performed in a 96 well format, aliquots spotted on p81 phosphocellulose papers (Whatmann), washed in 0.01% phosphoric acid, dried, and then exposed and analysed using Phospholmager technology (Storm, Molecular Dynamics). Activity measurements were performed in duplicates with less than 10% difference between duplicate pairs. Experiments were repeated at least twice, although most of the experiments were repeated multiple times, with similar results.
# (§2) Activity assays for each kinase were performed as described in Materials and Methods in the presence of 1% DMSO (100%). Except PKA, all protein kinases were produced as a GST-fusion. S6K1, PKBα, SGK mutants used were S6K1-T2-[Thr412Glu], PKBa[Ser473Asp] and ΔN-SGK[Ser422Asp].
# [2] = target: T2, PRK2 (Homo sapiens, UniProt Q16513); experiment: AGC kinase panel activity assay (Crosstide); settings: for PRK2 (%) activity: 1% DMSO = 100%
# T2 construct: made in house; host or cells: HEK293
# T2 sequence (Q16513 501-984): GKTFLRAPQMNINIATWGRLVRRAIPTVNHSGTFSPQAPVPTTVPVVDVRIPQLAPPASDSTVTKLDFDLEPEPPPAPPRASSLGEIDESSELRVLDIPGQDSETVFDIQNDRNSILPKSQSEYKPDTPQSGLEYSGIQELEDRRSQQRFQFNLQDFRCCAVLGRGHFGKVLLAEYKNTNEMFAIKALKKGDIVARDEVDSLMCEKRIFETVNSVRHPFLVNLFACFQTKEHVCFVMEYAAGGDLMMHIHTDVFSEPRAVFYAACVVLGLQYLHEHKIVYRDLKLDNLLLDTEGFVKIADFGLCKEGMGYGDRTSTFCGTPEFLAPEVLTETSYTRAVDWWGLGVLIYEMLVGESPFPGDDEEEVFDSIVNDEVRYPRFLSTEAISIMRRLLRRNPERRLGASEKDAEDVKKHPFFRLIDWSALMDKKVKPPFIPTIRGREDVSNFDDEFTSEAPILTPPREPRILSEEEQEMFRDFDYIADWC
# Experimental: as §1, §2
# [3] = target: T3, PKBa[Ser473Asp] (Homo sapiens, UniProt P31749, S473D); experiment: AGC kinase panel activity assay (Crosstide)
# T3 construct: made in house; host or cells: HEK293
# T3 sequence (P31749 whole entry S473D): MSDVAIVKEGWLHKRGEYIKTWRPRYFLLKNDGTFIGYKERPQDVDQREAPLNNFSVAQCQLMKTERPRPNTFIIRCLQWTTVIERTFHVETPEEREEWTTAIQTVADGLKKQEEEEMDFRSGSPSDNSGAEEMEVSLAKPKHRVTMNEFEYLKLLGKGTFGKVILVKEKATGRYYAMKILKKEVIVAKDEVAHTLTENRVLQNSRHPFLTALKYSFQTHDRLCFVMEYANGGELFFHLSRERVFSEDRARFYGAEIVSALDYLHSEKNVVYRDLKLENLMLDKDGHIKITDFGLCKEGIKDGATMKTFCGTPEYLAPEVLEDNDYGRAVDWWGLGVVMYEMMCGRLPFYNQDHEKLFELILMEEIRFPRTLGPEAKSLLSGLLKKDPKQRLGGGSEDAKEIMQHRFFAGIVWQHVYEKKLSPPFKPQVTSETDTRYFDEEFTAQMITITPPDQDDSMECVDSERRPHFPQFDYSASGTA
# Experimental: as §1, §2
# [4] = target: T4, S6K1-T2-[Thr412Glu] (Homo sapiens, UniProt P23443, T412E); experiment: AGC kinase panel activity assay (Crosstide); settings: for S6K1 (%) activity: 1% DMSO = 100%
# T4 construct: made in house; host or cells: HEK293
# T4 sequence (P23443 1-421 T412E limits assumed): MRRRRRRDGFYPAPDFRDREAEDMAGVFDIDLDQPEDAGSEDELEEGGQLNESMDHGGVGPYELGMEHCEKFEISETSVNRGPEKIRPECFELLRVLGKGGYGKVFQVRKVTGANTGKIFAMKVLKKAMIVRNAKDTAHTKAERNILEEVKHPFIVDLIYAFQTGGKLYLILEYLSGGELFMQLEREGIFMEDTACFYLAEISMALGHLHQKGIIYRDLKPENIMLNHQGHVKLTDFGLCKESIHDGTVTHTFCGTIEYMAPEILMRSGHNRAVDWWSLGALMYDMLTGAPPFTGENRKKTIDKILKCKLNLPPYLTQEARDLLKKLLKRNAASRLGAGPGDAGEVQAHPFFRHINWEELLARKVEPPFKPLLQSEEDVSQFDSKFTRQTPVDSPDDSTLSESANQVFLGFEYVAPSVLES
# Experimental: as §1, §2
# [5] = target: T5, GST-PDK1 wt (Homo sapiens, UniProt O15530); experiment: PDK1 activity assay with T308tide; settings: for PDK1 (%) activity: 1% DMSO = 100%; for activation of PDK1 (in words): PDK1 wild type
# T5 construct: different protein constructs, comprising the full length protein or the catalytic domain alone; made in house; host or cells: HEK293 cells (pEBG-2T-PDK1)
# T5 sequence (O15530 1-556): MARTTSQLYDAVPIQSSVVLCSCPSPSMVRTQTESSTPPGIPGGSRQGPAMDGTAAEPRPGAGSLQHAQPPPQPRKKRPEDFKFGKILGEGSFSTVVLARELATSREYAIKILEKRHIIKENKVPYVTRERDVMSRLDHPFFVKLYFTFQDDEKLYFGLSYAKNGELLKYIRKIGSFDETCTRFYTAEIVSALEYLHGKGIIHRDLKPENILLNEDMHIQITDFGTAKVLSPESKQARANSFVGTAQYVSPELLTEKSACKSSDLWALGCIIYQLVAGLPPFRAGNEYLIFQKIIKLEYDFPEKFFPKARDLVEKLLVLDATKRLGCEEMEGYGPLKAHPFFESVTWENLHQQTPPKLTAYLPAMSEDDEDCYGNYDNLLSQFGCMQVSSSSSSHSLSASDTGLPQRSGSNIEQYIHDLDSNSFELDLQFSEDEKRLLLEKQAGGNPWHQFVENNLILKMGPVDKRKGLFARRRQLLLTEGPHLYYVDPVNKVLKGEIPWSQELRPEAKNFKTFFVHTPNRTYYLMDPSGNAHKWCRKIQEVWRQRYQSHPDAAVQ
# [6] = target: T6, PKA (Homo sapiens, UniProt P17612); experiment: AGC kinase panel activity assay (Kemptide); settings: for PKA (%) activity: 1% DMSO = 100%
# T6 construct: purchased Sigma
# Experimental: as §1, §2
# [7] = GST-PDK1 wt, T308tide 0.1 mM, read-out: AC50
Compound,SGK1 (%) activity ([1]; 20 μM compound) [%],SGK1 (%) activity ([1]; 200 μM compound) [%],PRK2 (%) activity ([2]; 20 μM compound) [%],PRK2 (%) activity ([2]; 200 μM compound) [%],S6K1 (%) activity ([4]; 20 μM compound) [%],S6K1 (%) activity ([4]; 200 μM compound) [%],PDK1 (%) activity ([5]; 20 μM compound) [%],PDK1 (%) activity ([5]; 200 μM compound) [%],activation of PDK1 (in words) [5],PKA (%) activity ([6]; 20 μM compound) [%],PKA (%) activity ([6]; 200 μM compound) [%],"Max. activity ([5]; GST-PDK1 wt, T308tide 0.1 mM) [U/mg]","AC50 [5, 7] [µM]",further results
COC(=O)CSC(CC(=O)c1ccc(Cl)cc1)c1ccccc1 (stereo not shown) [Compound 2],89,92,106,89,109,120,109,124,inactive,109,103,–,–,"PKBα (%) activity ([3]; 20 μM compound, 1% DMSO = 100%): 92%; PKBα (%) activity ([3]; 200 μM compound, 1% DMSO = 100%): 106%"
"REPRILSEEEQEMFRDFDYIADWC [PIFtide, reference compound]",–,–,–,–,–,–,–,–,–,–,–,0.9 ± 0.05,0.11 ± 0.03,–
O=C(O)CSC(CC(=O)c1ccc(Cl)cc1)c1ccccc1 (stereo not shown) [Compound 1],97,61,103,110,109,110,234,370,activated PDK1,100,94,1.1 ± 0.07,34 ± 9,"effect on SGK1 activity (in words) ([1]; 20 μM): no significant effect; effect on PRK2 activity (in words) ([2]; 20 μM): no significant effect; effect on PKBa/AKT1 activity (in words) ([3]; 20 μM): no significant effect; activity at 20 µM ([3]; 20 μM compound, 1% DMSO = 100%, read-out: PKBα (%) activity): 89%; activity at 200 µM ([3]; 200 μM compound, 1% DMSO = 100%, read-out: PKBα (%) activity): 85%; effect on S6K activity (in words) ([4]; 20 μM): no significant effect; AC50 ([5]; FIG. 2B, read-out: AC50 of PDK1 activation): 25 µM; effect on PKA activity (in words) ([6]; 20 μM): no significant effect"
P-HM-RSK: phosphorylated HM polypeptide of RSK: KGAGGGGFRGFS(P)FVA (KGAGGGGFRGF[pS]FVA),–,–,–,–,–,–,–,–,activated,–,–,–,–,–
